Measured values from ChEMBL document CHEMBL5046301, “pH-Responsive Antimicrobial Peptide with Selective Killing Activity for Bacterial Abscess Therapy” (J Med Chem, 2022).
Activity calls are given as the source filed them. The rule behind the calls is not given here.

Tests used:
[1] = test system: Salmonella typhimurium; experiment: Antibacterial activity against Salmonella typhimurium ATCC 14028 assessed as inhibition of bacterial growth at pH 7.4 incubated for 24 hrs by NCCLS protocol based method; assay type: functional, Salmonella enterica subsp. enterica serovar Typhimurium; conditions: Salmonella enterica
[2] = test system: Staphylococcus aureus; experiment: Antibacterial activity against Staphylococcus aureus ATCC 29213 assessed as inhibition of bacterial growth at pH 6.5 incubated for 24 hrs by NCCLS protocol based method; assay type: functional
[3] = Cytotoxicity against mouse RAW264.7 cells assessed as inhibition of cell growth at pH 7.4 measured after 24 hrs by MTT assay; assay type: toxicity, cell-based
[4] = Cytotoxicity against mouse RAW264.7 cells assessed as inhibition of cell growth at pH 6.5 measured after 24 hrs by MTT assay; assay type: toxicity, cell-based
[5] = test system: Staphylococcus epidermidis; experiment: Antibacterial activity against Staphylococcus epidermidis ATCC 12228 assessed as inhibition of bacterial growth at pH 7.4 incubated for 24 hrs by NCCLS protocol based method; assay type: functional
[6] = test system: Staphylococcus aureus; experiment: Antibacterial activity against Staphylococcus aureus ATCC 29213 assessed as inhibition of bacterial growth at pH 7.4 incubated for 24 hrs by NCCLS protocol based method; assay type: functional
[7] = test system: Staphylococcus epidermidis; experiment: Antibacterial activity against Staphylococcus epidermidis ATCC 12228 assessed as inhibition of bacterial growth at pH 6.5 incubated for 24 hrs by NCCLS protocol based method; assay type: functional
[8] = test system: Escherichia coli; experiment: Antibacterial activity against Escherichia coli ATCC 25922 assessed as inhibition of bacterial growth at pH 7.4 incubated for 24 hrs by NCCLS protocol based method; assay type: functional
[9] = Hemolytic activity in human RBC assessed as hemoglobin release at pH 7.4 incubated for 1 hr; assay type: toxicity, cell-based; conditions: erythrocyte, pH 7.4, 1 h
[10] = test system: Staphylococcus aureus; experiment: Antibacterial activity against methicillin-resistant Staphylococcus aureus ATCC 43300 assessed as inhibition of bacterial growth at pH 6.5 incubated for 24 hrs by NCCLS protocol based method; assay type: functional
[11] = Hemolytic activity against human RBC assessed as hemoglobin release at pH 6.5 incubated for 1 hrs; assay type: toxicity, cell-based; conditions: erythrocyte, pH 6.5, 1 h
[12] = test system: Escherichia coli; experiment: Antibacterial activity against Escherichia coli ATCC 25922 assessed as inhibition of bacterial growth at pH 6.5 incubated for 24 hrs by NCCLS protocol based method; assay type: functional
[13] = test system: Staphylococcus aureus; experiment: Antibacterial activity against Staphylococcus aureus ATCC 25923 assessed as inhibition of bacterial growth at pH 6.5 incubated for 24 hrs by NCCLS protocol based method; assay type: functional
[14] = test system: Salmonella typhimurium; experiment: Antibacterial activity against Salmonella typhimurium ATCC 14028 assessed as inhibition of bacterial growth at pH 6.5 incubated for 24 hrs by NCCLS protocol based method; assay type: functional, Salmonella enterica subsp. enterica serovar Typhimurium; conditions: Salmonella enterica
[15] = test system: Salmonella typhimurium; experiment: Antibacterial activity against Salmonella enterica subsp. enterica serovar Typhimurium C77-31 assessed as inhibition of bacterial growth at pH 6.5 incubated for 24 hrs by NCCLS protocol based method; assay type: functional
[16] = test system: Salmonella typhimurium; experiment: Antibacterial activity against Salmonella enterica subsp. enterica serovar Typhimurium C77-31 assessed as inhibition of bacterial growth at pH 7.4 incubated for 24 hrs by NCCLS protocol based method; assay type: functional
[17] = test system: Pseudomonas aeruginosa; experiment: Antibacterial activity against Pseudomonas aeruginosa ATCC 27853 assessed as inhibition of bacterial growth at pH 6.5 incubated for 24 hrs by NCCLS protocol based method; assay type: functional
[18] = test system: Pseudomonas aeruginosa; experiment: Antibacterial activity against Pseudomonas aeruginosa ATCC 27853 assessed as inhibition of bacterial growth at pH 7.4 incubated for 24 hrs by NCCLS protocol based method; assay type: functional
[19] = test system: Staphylococcus aureus; experiment: Antibacterial activity against methicillin-resistant Staphylococcus aureus ATCC 43300 assessed as inhibition of bacterial growth at pH 7.4 incubated for 24 hrs by NCCLS protocol based method; assay type: functional
[20] = test system: Staphylococcus aureus; experiment: Antibacterial activity against Staphylococcus aureus ATCC 25923 assessed as inhibition of bacterial growth at pH 7.4 incubated for 24 hrs by NCCLS protocol based method; assay type: functional
[21] = Ratio of MHC for hemolytic activity against human RBC assessed as hemoglobin release at pH 6.5 to MHC for hemolytic activity against human RBC assessed as hemoglobin release at pH 7.4; assay type: toxicity, cell-based, Erythrocyte; conditions: human red blood cells (RBC)
[22] = test system: Mus musculus; experiment: Antiinflammatory activity in ICR cutaneous abscess mouse model assessed as reduction in TNF-alpha expression in serum at 5 mg/kg,ip administered twice a day measured after 72 hrs by ELISA (reference value: 1.01 +/ 0.46 10^3 pg/ml); assay type: functional
[23] = test system: Pseudomonas aeruginosa; experiment: Antimicrobial activity against Pseudomonas aeruginosa ATCC 27853 infected in ICR cutaneous abscess mouse model assessed as complete epidermis structure at 5 mg/kg,ip administered twice a day measured after 3 days by hematoxylin and eosin staining based analysis; assay type: functional, organism-based; conditions: time 3.0 day
[24] = test system: Mus musculus; experiment: Antiinflammatory activity in ICR cutaneous abscess mouse model assessed as reduction in IL-2 expression in serum at 5 mg/kg,ip administered twice a day measured after 72 hrs by ELISA (reference value: 1.53 +/ 0.06 10^3pg/ml); assay type: functional
[25] = test system: Pseudomonas aeruginosa; experiment: Antimicrobial activity against Pseudomonas aeruginosa ATCC 27853 infected in ICR cutaneous abscess mouse model assessed as reduction in necrotic tissue area in infection site at 5 mg/kg,ip administered twice a day measured after 3 days by hematoxylin and eosin staining based analysis; assay type: functional, organism-based; conditions: time 3.0 day
[26] = test system: Mus musculus; experiment: Antiinflammatory activity in ICR cutaneous abscess mouse model assessed as reduction in IL-1alpha expression in serum at 5 mg/kg,ip administered twice a day measured after 72 hrs by ELISA (reference value: 9.9 +/ 0.42 10^1pg/ml); assay type: functional
[27] = test system: Mus musculus; experiment: Antiinflammatory activity in ICR cutaneous abscess mouse model assessed as reduction in IL-1beta expression in serum at 5 mg/kg,ip administered twice a day measured after 72 hrs by ELISA (reference value: 9.9 +/ 0.47 10^1pg/ml); assay type: functional

Row | Substance | MIC [1] [µM] | MIC [2] [µM] | IC50 at 24 h [3] [µM] | IC50 at 24 h [4] [µM] | MIC [5] [µM] | MIC [6] [µM] | MIC [7] [µM] | MIC [8] [µM] | MHC10 [9] [µM] | MIC [10] [µM] | MHC10 [11] [µM] | MIC [12] [µM] | MIC [13] [µM] | MIC [14] [µM] | MIC [15] [µM] | MIC [16] [µM] | MIC [17] [µM] | MIC [18] [µM] | MIC [19] [µM] | MIC [20] [µM] | other results
1 | H-HLHHLIPHVIHGLVHAIHH-NH2 | 64 | > 64 | 66 | 58.3 | 32 | > 64 | > 64 | 16 | > 128 | > 64 | > 128 | 2 | > 64 | 8 | 2 | 64 | 8 | > 64 | 16 | 32 | 
2 | H-FLFKLIPKVIKGLVHAIHH-NH2 | 8 | 2 | 4.37 | 2.96 | 2 | 2 | 2 | 4 | 64 | 2 | 32 | 4 | 2 | 4 | 4 | 8 | 4 | 8 | 2 | 2 | selectivity ratio [21]: 0.5
3 | H-DLDHLIPHVIHGLVHAIHH-NH2 | > 64 | > 64 | > 128 | > 128 | > 64 | > 64 | > 64 | > 64 | > 128 | > 64 | > 128 | 32 | > 64 | > 64 | > 64 | > 64 | > 64 | > 64 | > 64 | > 64 | 
4 | COLISTIN |  |  |  |  |  |  |  |  |  |  |  |  |  |  |  |  |  |  |  |  | Activity [22]: 8.06 10^2pg/ml; Activity [23]: Active; Activity [24]: 1.11 10^3pg/ml; Activity [25]: Active; Activity [26]: 7.95 10^1pg/ml; Activity [27]: 7.23 10^1pg/ml
5 | H-FLDHLIPHVIHGLVHAIHH-NH2 | > 64 | > 64 | 67.9 | 67.9 | > 64 | > 64 | > 64 | > 64 | > 128 | > 64 | > 128 | 4 | > 64 | 16 | 16 | > 64 | 8 | > 64 | > 64 | > 64 | 
6 | H-HLEHLIPHVIHGLVHAIHH-NH2 | > 64 | > 64 | > 128 | > 128 | > 64 | > 64 | > 64 | > 64 | > 128 | > 64 | > 128 | 4 | > 64 | 64 | > 64 | > 64 | 32 | > 64 | > 64 | > 64 | 
7 | H-HLDHLIPHVIHGLVHAIHH-NH2 | > 64 | > 64 | > 128 | > 128 | > 64 | > 64 | > 64 | > 64 | > 128 | > 64 | > 128 | 8 | > 64 | 64 | 64 | > 64 | 32 | > 64 | > 64 | > 64 | 
8 | H-FLHHLIPHVIHGLVHAIHH-NH2 | 16 | 16 | 70.1 | 16.1 | 4 | > 64 | 8 | 8 | 64 | 8 | 64 | 2 | 8 | 4 | 2 | 16 | 2 | > 64 | 4 | 4 | selectivity ratio [21]: 1
9 | H-FLFHLIPHVIHGLVKAIRK-NH2 | 8 | 1 | 4.41 | 3.15 | 1 | 2 | 1 | 2 | 16 | 1 | 4 | 1 | 1 | 4 | 2 | 4 | 1 | 4 | 2 | 2 | selectivity ratio [21]: 0.25
10 | H-FLFHLIPHVIHGLVHAIHH-NH2 | 64 | 4 | 12.3 | 4.79 | 4 | 4 | 2 | 4 | 16 | 2 | 8 | 2 | 2 | 16 | 8 | 64 | 2 | 64 | 4 | 4 | selectivity ratio [21]: 0.5
11 | H-ELEHLIPHVIHGLVHAIHH-NH2 | > 64 | > 64 | > 128 | > 128 | > 64 | > 64 | > 64 | > 64 | > 128 | > 64 | > 128 | 32 | > 64 | > 64 | > 64 | > 64 | > 64 | > 64 | > 64 | > 64 | 
